The text below walks through data of US20220160686A1, “MACROCYCLIC AZOLOPYRIDINE DERIVATIVES AS EED AND PRC2 MODULATORS” (Fulcrum Therapeutics, Inc., priority 2019, published 2022).

Like-named read-outs stand apart in the source and are kept apart here.

The test system of series [1] is human P-glycoprotein HEK cells (HEK-P-gp). Nature of the series: H3K27me3 immunocytochemistry assay in P-gp expressing HEK293T cells, with or without elacridar. The series is classed as cell-based. On the procedure: A plasmid encoding the human ABCB1 gene under the control of a CMV promoter was purchased from Origene (Cat #RC216080). The HEK293T cells were purchased from ATCC (Cat #CRL-3216) and were cultured for expansion in the recommended conditions. The HEK293T cells were transfected with 2 ug of the pCMV-ABCB1 plasmid using Lipofectamine 3000 following recommendations from the manufacturer (ThermoFisher Scientific, Cat #L3000008). After 24 h, cells were dissociated, and 5000 cells were seeded on a 10 cm tissue culture dish. On the next day, fresh media containing 5 nM Vinblastine (Sigma, Cat #V1377) was added, and media containing compound was replenished every 72 h. After surviving cells reached confluency, cells were passaged, and lines were maintained in the presence of 2.5 nM Vinblastine until further characterization.
P-gp expressing HEK293T, HUDEP2, and Human Mobilized Peripheral Blood Primary CD34+ cells were cultured for use in an H3K27me3 immunocytochemistry assay. HUDEP2 and Human Mobilized Peripheral Blood Primary CD34+ cells were cultured for use in an HbF immunocytochemistry assay. P-gp expressing HEK293T cells were maintained and passaged every 3-4 days by plating 300,000 viable cells in a T-25 culture flask containing 6 mLs of 293 Passaging Media comprised of DMEM (ThermoFisher #10566016), 10% fetal bovine serum (ThermoFisher #A3160502), 1% penicillin-streptomycin (ThermoFisher #15140122), and 2.5 nM Vinblastine (Sigma #V1377). To evaluate the inhibitory effect of the compounds of the present disclosure and their brain penetrant properties via P-gp mediated efflux, the H3K27me3 immunocytochemistry assay was conducted in the presence or absence of 250 nM of the P-gp inhibitor, elacridar. Poor brain penetrant compounds were expected to show higher potencies in the presence of Elacridar. However, brain penetrant compounds would show similar potencies irrespective of whether Elacridar is present or not. In these experiments plates without elacridar were seeded with P-gp expressing HEK293T cells at 1000 viable cells per well in a poly-d-lysine coated 384-well plate (Corning Cat #356697) in 45 μL of 293 Assay Media comprised of DMEM (ThermoFisher #10566016), 10% fetal bovine serum (ThermoFisher #A3160502), 1% penicillin-streptomycin (ThermoFisher #15140122). A replicate set of plates were seeded under the same conditions with 45 μL of 293 Assay Media supplemented with 250 nM of Elacridar to inhibit P-gp activity. Compounds were serially diluted at 10× concentration in 293 Media, and 5 μL transferred to their respective wells on both sets of plates for a total volume of 50 μL per well. The compound treated HEK293T cells were allowed to incubate for 4 days at 37° C., 85% relative humidity, and 5% CO2 before proceeding to ICC Fix and Stain protocol.
The Fix and Stain Protocol was the same for HEK293T, HUDEP2, and Primary CD34+ cell assays except the specific primary and secondary antibodies used for detection. Following 4 days of compound treatment, the respective plates were washed once with 25 μL of PBS (ThermoFisher #10010023) and fixed with 25 μL of 4% paraformaldehyde (ThermoFisher #28908) for 10 minutes at room temperature. The plates were then washed three times with 25 μL of PBS. Subsequent to that, the cells were permeabilized and blocked for 1 hour at room temperature in 25 μL of Perm/Block buffer comprised of IX PBS, 1% bovine serum albumin (ThermoFisher #A3294), 10% fetal bovine serum (ThermoFisher #A3160502), 0.3M glycine (Sigma #G7126), and 0.1% tween-20 (Sigma #P7949). This was followed by additional washing (three times) of the plates with 25 μL of 0.1% tween in PBS.
For the H3K27me3 assay, the cells were incubated overnight at 4° C. with 25 μL of H3K27me3 Primary Antibody (Cell Signaling #9733) diluted 1:200 in 0.1% tween-20 in PBS. […]

In series [2] the target is T1, biotinylated AVI-tagged EED (76-441) (Homo sapiens, UniProt O75530).
T1 construct: GST (N, cleaved yes); made in house; host or cells: E. coli BL21(DE3), co-expressed with pGro7
Nature of the series: EED binding SPR assay. The following applies: 1:1 binding model; read-out: KD, equilibrium dissociation constant as measured by surface plasmon resonance (SPR). On the procedure:
Biotinylated AVI-tagged EED was produced using standard molecular biology techniques. A pGEX plasmid with a GST-preScission-cleavage-site-AVI-EED(76-441) sequence was placed into E. coli BL21(DE3) cells and co-expressed with pGro7. The E. coli were grown in shaker flasks in LB with ampicillin at 37° C. at 110 rpm to an OD600=0.7. At this time the temperature was lowered to 15° C. and IPTG was added to 0.3 mM. The cells were allowed to express overnight. Cells were then harvested.
For purification, the E. coli cell pellet was lysed into a buffer of 50 mM Tris pH 8.0, 500 mM NaCl, 5% glycerol and 5 mM DTT. The lysate was loaded onto a GSTrap FF column from GE Healthcare. After washing, the bound protein was eluted with 50 mM Tris pH 8.0, 500 mM NaCl, 5% glycerol, 5 mM DTT and 15 mM GSH. The collected fractions were combined and incubated with PreScission enzyme overnight at 4° C. The cleaved protein was then passed through a GSTrap FF column in a buffer of 50 mM Tris pH 8.0, 500 mM NaCl, 5% glycerol and 5 mM DTT. The cleaved protein was confirmed through mass spectrometry. The AVI-EED(76-441) was then buffer exchanged into 50 mM Bicine pH 8.3, 10 mM ATP, 10 mM magnesium acetate and 50 μM D-Biotin. 3 mg of BirA enzyme was added to the system and incubated at 4° C. for 2 hours to biotinylate the AVI-EED(76-441). The biotinylated-AVI-EED(76-441) was then buffer exchanged into 20 mM Tris pH 8.0 and 400 mM NaCl and passed through a size exclusion column of Superdex 200 16/60 Increase. The purified monomeric biotinylated-AVI-EED(76-441) was confirmed through SDS-PAGE, LC-MS and analytical size exclusion chromatography.
All surface plasmon resonance (SPR) assays were performed using a GE Biacore S200 utilizing GE Biotin CAPture chips. Capturing of CAP reagents was performed with a flow rate of 2 μL/min for 90 seconds. For protein capturing, a solution of 50 μg/mL of biotinylated AVI-tagged EED (76-441) in 10 mM HEPES pH 7.4, 150 mM NaCl, 0.05% Tween 20 and 2% DMSO (Running Buffer) was flowed over the chip with a flow rate of 5 μL/min for a contact time of 30 seconds. Final readings were 2200-2400 RU. For compounds, 7 concentrations were made with 3-dilutions using the Running Buffer for a total of 300 μL of each concentration in a 96-well microplate. During the binding experiments, a flow rate of […] was used for an association time of 90 seconds followed by a disassociation time of 180 seconds. The compartment temperature was set at 10° C. with the chip at 25° C. During regeneration the flow rate was set to 30 μL/min for 30 seconds. All fittings were done using a 1:1 binding model.
(SPR reads the build-up and loss of mass on a sensor chip optically.)

[3] abbreviates: Homo sapiens, HEK293, 96 h, without elacridar, 4 days compound treatment, read-out: IC50, inhibitory activity on human P-glycoprotein HEK cells (HEK-P-gp).
Setting [4] is: Homo sapiens, HEK293, with 250 nM elacridar, 4 days compound treatment, read-out: IC50, inhibitory activity on human P-glycoprotein HEK cells (HEK-P-gp) pretreated with elacridar.

T1 sequence (O75530 76-441 limits assumed): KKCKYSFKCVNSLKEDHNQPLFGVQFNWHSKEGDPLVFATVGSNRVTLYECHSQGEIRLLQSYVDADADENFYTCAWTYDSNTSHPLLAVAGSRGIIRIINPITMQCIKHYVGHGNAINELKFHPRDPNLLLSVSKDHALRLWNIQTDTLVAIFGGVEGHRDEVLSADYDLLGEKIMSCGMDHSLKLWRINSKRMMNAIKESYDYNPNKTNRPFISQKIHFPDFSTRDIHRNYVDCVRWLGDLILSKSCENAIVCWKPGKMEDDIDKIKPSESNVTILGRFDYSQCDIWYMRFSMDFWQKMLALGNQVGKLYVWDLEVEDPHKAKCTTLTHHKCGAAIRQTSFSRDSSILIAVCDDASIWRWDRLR

As a reminder, the IC50 is the concentration that inhibits the measured activity by half. As a reminder, the Kd is the equilibrium constant for the complex coming apart. For the compound `Cc1nccc(O)c1-c1cc2c(n3cnnc13)NCc1c(F)ccc3c1C(CO3)CO2` [Compound 192, (S)-3-(12-fluoro-7a,8,13,14-tetrahydro-7H-[1,2,4]triazolo[4′,3′:1,6]pyrido[3,2-b]benzofuro[4,3-fg][1,4]oxazonin-4-yl)-2-methylpyridin-4-ol], the IC50 in series [1] (setting [3]) and in series [1] (setting [4]) was more than 500 nM in each case. The dissociation constant (Kd) in series [2] lay within 10 to 50 nM.
In the case of `OCc1ncccc1-c1cc2c(n3cnnc13)NCc1c(F)ccc3c1C(CO3)CO2` [Compound 195, (S)-(3-(12-fluoro-7a,8,13,14-tetrahydro-7H-[1,2,4]triazolo[4′,3′:1,6]pyrido[3,2-b]benzofuro[4,3-fg][1,4]oxazonin-4-yl)pyridin-2-yl)methanol], the IC50 was less than 25 nM in series [1] (setting [3]) and 50 to 100 nM in series [1] (setting [4]). Moreover, the Kd in series [2] was less than 2.5 nM.
The like results for `Fc1ccc2c3c1CNc1c(cc(-c4ccc(N5CCOCC5)nc4)c4nncn14)OC[C@H]3CO2` [Example 116] were, in that order, more than 500 nM, 100 to 500 nM and less than 2.5 nM.
For `Cc1nc(O)ccc1-c1cc2c(n3cnnc13)NCc1c(F)ccc3c1[C@@H](CO3)CO2` [Compound 187, (S)-5-(12-fluoro-7a,8,13,14-tetrahydro-7H-[1,2,4]triazolo[4′,3′:1,6]pyrido[3,2-b]benzofuro[4,3-fg][1,4]oxazonin-4-yl)-6-methylpyridin-2-ol] the same measures were more than 500 nM, more than 500 nM and less than 2.5 nM.
For `Cn1nccc1-c1cc2c(n3cc(C(=O)O)nc13)NCc1c(F)ccc3c1[C@@H](CO3)CO2` [Compound 174, (S)-5-fluoro-12-(1-methyl-1H-pyrazol-5-yl)-6,7,15,15a-tetrahydro-1H-benzofuro[4,3-fg]imidazo[r,2′:1,6]pyrido[3,2-b][1,4]oxazonine-10-carboxylic acid], in series [2], the Kd lay in the range of 5 to 10 nM.
Consider `Fc1ccc2c3c1CNc1c(cc(-c4ccc(C(F)(F)F)nc4)c4nncn14)OC[C@H]3CO2` [Example 112], for which the IC50 in series [1] (setting [3]) and in series [1] (setting [4]) was 100 to 500 nM in each case. Moreover, the Kd in series [2] was in the range of 2.5 to 5 nM.
As for `Fc1ccc2c3c1CNc1c(cc(-c4cnc(C(F)(F)F)nc4)c4nncn14)OC[C@H]3CO2` [Example 114], the IC50 in series [1] (setting [3]) and in series [1] (setting [4]) was 100 to 500 nM each time. The Kd in series [2] was less than 2.5 nM.
For `CN1CCN(c2ncc(-c3cc4c(n5cnnc35)NCc3c(F)ccc5c3[C@H](CO5)CO4)cn2)CC1` [Example 118], the IC50 in series [1] (setting [3]) lay within 100 to 500 nM; in series [1] (setting [4]), 50 to 100 nM. Besides, the Kd in series [2] was less than 2.5 nM.
For `Cc1nc(-c2cc3c(n4cnnc24)NCc2c(F)ccc4c2[C@@H](CO4)CO3)ccc1C(F)F` [Example 77, (S)-4-(5-(difluoromethyl)-6-methylpyridin-2-yl)-12-fluoro-7a,8,13,14-tetrahydro-7H-[1,2,4]triazolo[4′,3′:1,6]pyrido[3,2-b]benzofuro[4,3-fg][1,4]oxazonine], the IC50 in series [1] lay in the range of 100 to 500 nM.
Consider `COc1cc(C)c(-c2cc3c(n4cnnc24)NCc2c(F)ccc4c2[C@@H](CO4)CO3)cn1` [Example 68, (S)-12-fluoro-4-(6-methoxy-4-methylpyridin-3-yl)-7a,8,13,14-tetrahydro-7H-[1,2,4]triazolo[4′,3′:1,6]pyrido[3,2-b]benzofuro[4,3-fg][1,4]oxazonine], for which the IC50 in series [1] lay in the range of 50 to 100 nM.
Regarding `COc1nccc(C)c1-c1cc2c(n3cnnc13)NCc1c(F)ccc3c1[C@@H](CO3)CO2` [Example 71, (S)-12-fluoro-4-(2-methoxy-4-methylpyridin-3-yl)-7a,8,13,14-tetrahydro-7H-[1,2,4]triazolo[4′,3′:1,6]pyrido[3,2-b]benzofuro[4,3-fg][1,4]oxazonine], in series [1], the IC50 was less than 25 nM.
Same read-out and setting: the same measure for `CN(C)C(=O)c1ccc(-c2cc3c(n4cnnc24)NCc2c(F)ccc4c2[C@@H](CO4)CO3)cn1` [Example 152, (S)-5-(12-fluoro-7a,8,13,14-tetrahydro-7H-[1,2,4]triazolo[4′,3′:1,6]pyrido[3,2-b]benzofuro[4,3-fg][1,4]oxazonin-4-yl)-N,N-dimethylpicolinamide]: less than 25 nM.
